The values that follow come from patent publication US8481526B2, “Fluoroquinolone carboxylic acid molecular crystals” (Bausch & Lomb Incorporated, priority 2009, dated 2013).

Type in all cases: physicochemical
Data set [1] can be described thus: Equilibrium solubility in various solvents (HPLC). Conditions: 22° C. ± 2° C., listed as Free base; for solubility: solubility of free base.
A short description of data set [2]: Equilibrium solubility in various solvents (HPLC). Conditions: Water, 22° C. ± 2° C., listed as Free base. On the procedure:
(§1) A reversed phase gradient HPLC method was used for the analysis of besifloxacin solubility samples. The conditions are listed below:
The solubility of besifloxacin HCl was evaluated in several organic solvents. An excess of drug substance was equilibrated with 10 mL of each solvent for 24-48 hours at room temperature (24±3° C.) using either a small magnetic stirrer or a Burrell Wrist Action shaker. Samples were inspected visually, and if needed, more drug substance was added until excess solid persisted after stirring. The samples were then filtered through 0.45 μm Nylon or PVDF filters or centrifuged at 10,000 RPM for 15 minutes. The filtrate or the supernatant was diluted as needed using the HPLC diluent and analyzed by HPLC. When solubility was greater than 100 mg/mL, no attempt was made to determine the equilibrium solubility and the compound was described as “freely soluble” as per the USP definition.
(§2) The solubility of besifloxacin HCl, lot 050956330, was determined in distilled water as a function of pH by adjusting the pH with 1 N NaOH. Suspensions of the drug substance (about 50-150 mg in 10 mL distilled water) were equilibrated for 72-96 hours using a Burrell shaker. Laboratory temperature was 22±2° C. The pH of the suspensions was measured in the presence of excess solid prior to sampling. The samples were centrifuged in an Enprotech ISS-I13 centrifuge at 10,000 RPM for 15 minutes or filtered through 0.45[…] or PVDF filters. When samples were filtered, a volume of filtrate was discarded to allow saturation of filters. The supernatant or the filtrate was diluted as needed using the HPLC diluent prior to analysis. Sample concentration was monitored at varying time intervals to ensure complete equilibration. Also, sample concentration was reported as besifloxacin free base concentration rather than HCl salt.

A short description of data set [3]: pH-dependence of solubility in distilled water (HPLC). Conditions: for solubility: distilled water, 22 °C, aqueous buffer, thermodynamic from solid. On the procedure:
as §1, §2

A short description of data set [4]: Moisture sorption analysis (VTI moisture sorption balance). Particulars: 25° C. On the procedure:
Moisture uptake and loss was monitored as a function of relative humidity using a VTI, moisture sorption balance. A 30-40 mg sample was loaded into a tared glass sample holder. The initial weight of the sample was accurately recorded. The sample was then dried under a steady stream of nitrogen for 2 hours at 40° C. After initial drying, the sample mass was equilibrated with dry nitrogen at 25° C. and the sample was exposed to progressive stepwise increases in humidity under controlled conditions. The sample was equilibrated for two hours at each new relative humidity. The moisture sorption behavior was monitored at 10% to 90% RH in 10% RH intervals and desorption was monitored from 90% to 10% RH. The % moisture gain/loss was recorded vs. the % RH.

Data set [5] is described as follows: pKa and intrinsic solubility from fit of pH-solubility profile to Henderson-Hasselbach equation. Particulars: for solubility: aqueous buffer; for pKa: estimated from fit of pH-solubility profile. An excerpt:
To determine pKas that were consistent with observed solubility behavior, the pH dependent solubility was fitted to the following expression: S=So*(10^pKa1-pH+10^pH-pKa2+1) where S=solubility So=intrinsic solubility (total of zwitterionic and neutral species) pKa1=dissociation constant for the carboxylic acid moiety pKa2=dissociation constant for the primary ammonium ion moiety

Values after ≈ are worked out from the molar mass of the structure shown. Where two headings read alike, the source gives them in different places.

A word on the solubility: it is the concentration that dissolves in the medium under given conditions. `N[C@@H]1CCCCN(c2c(F)cc3c(=O)c(C(=O)O)cn(C4CC4)c3c2Cl)C1` [besifloxacin free base, (R)-(+)-7-(3-amino-2,3,4,5,6,7-hexahydro-1H-azepin-1-yl)-1-cyclopropyl-8-chloro-6-fluoro-1,4-dihydro-4-oxoquinoline-3-carboxylic acid]: the USP def entry in data set [1] (Acetonitrile) was “Insoluble”; in data set [1] (Ethanol) it was “Insoluble”; in data set [1] (Isopropanol), “Insoluble”; in data set [1] (Methanol), “Very slightly”; in data set [2], “Insoluble”. In addition, the solubility is 5 µg/mL (≈ 12.7 µM) in data set [1] (Acetonitrile); 33 µg/mL (≈ 83.8 µM) in data set [1] (Ethanol); 4 µg/mL (≈ 10.2 µM) in data set [1] (Isopropanol); 135 µg/mL (≈ 343 µM) in data set [1] (Methanol); 79 µg/mL in data set [2] (saturated solution pH 3.6 (HCl salt), 8.1 (free base), solubility of free base); around 100 µg/mL (≈ 254 µM) in data set [3] (pH 6.5 (product pH), read-out: Solubility in aqueous media). Further, in data set [4] (10% to 90% RH, listed as Besifloxacin free base), the “Hygroscopicity / moisture sorption behaviour” value was “sorbed moisture at all RH conditions”. Further, in data set [4] (90% RH), the Moisture sorbed entry is on record as “up to 5 % w/w”.
The term pKa denotes the negative logarithm of the acid dissociation constant. Consider `N[C@@H]1CCCCN(c2c(F)cc3c(=O)c(C(=O)O)cn(C4CC4)c3c2Cl)C1` [besifloxacin, (R)-(+)-7-(3-amino-2,3,4,5,6,7-hexahydro-1H-azepin-1-yl)-1-cyclopropyl-8-chloro-6-fluoro-1,4-dihydro-4-oxoquinoline-3-carboxylic acid], for which the solubility in data set [5] (distilled water (pH adjusted with 1 N NaOH), assumed in fit of pH-solubility profile, read-out: Intrinsic solubility) is 74 µg/mL (≈ 188 µM); in data set [5] (distilled water, pH adjusted with 1 N NaOH, fit of pH-solubility profile, total of zwitterionic and neutral species, read-out: Intrinsic solubility (So)), 74 µg/mL (≈ 188 µM); in data set [3] (aqueous, pH 3, read-out: Maximum solubility as a function of pH), around 10000 µg/mL (≈ 25400 µM); in data set [3] (aqueous, pH range 5.5-9.0, read-out: Solubility of the zwitterion), around 100 µg/mL (≈ 254 µM). In addition, the figures for the pKa in data set [5] (read-out: pKa of the carboxylic acid group (pKa1)) and in data set [5] (read-out: pKa of the primary amine (ammonium) group (pKa2)) were 5.65 and 9.91, respectively. Also, the “Solubility description of the zwitterion” value in data set [3] (aqueous, pH 5.5-9.0) is recorded as “very slightly soluble”. Further, in data set [3] (aqueous, pH range 5.5-9.0), the “Solubility of the zwitterion” value was around 100 µg/mL.
